Data as given in ChEMBL document CHEMBL3603786, “The 2',4'-dihydroxychalcone could be explored to develop new inhibitors against the glycerol-3-phosphate dehydrogenase from Leishmania species” (Bioorg Med Chem Lett, 2015).

Tests used:
[1] = tested on: Leishmania amazonensis; experiment: Ratio of pentamidine IC50 to compound IC50 for Leishmania amazonensis MPRO/BR/1972/M1841-LV-79; assay type: functional
[2] = Cytotoxicity against Swiss albino mouse peritoneal macrophages after 24 hrs by MTT assay; assay type: cell-based, Peritoneal macrophage cell
[3] = tested on: Leishmania amazonensis; experiment: Antileishmanial activity against promastigotes of Leishmania amazonensis MPRO/BR/1972/M1841-LV-79 after 72 hrs by MTT assay; assay type: functional, organism-based; settings: MPRO/BR/1972/M1841-LV-79, 72 h
[4] = Selectivity index, ratio of CC50 for Swiss albino mouse peritoneal macrophages to IC50 for promastigotes of Leishmania amazonensis MPRO/BR/1972/M1841-LV-79; assay type: functional

SMILES	Ratio IC50 [1]	CC50 at 24 h [2] [µM]	IC50 [3] [µM]	Ratio CC50/IC50 [4]
O=C(/C=C/c1ccccc1)c1ccc(O)cc1O [2',4'-DIHYDROXYCHALCONE]	16	417	0.4	1041.7
N=C(N)c1ccc(OCCCCCOc2ccc(C(=N)N)cc2)cc1 [PENTAMIDINE]		35.7	6.7	5.3
